Values of other authors in patent publication US6372707B1, “Cleaning compositions” (Lever Brothers Company, division of Conopco, Inc., priority 1997, dated 2002).

Details: for Water Solubility (g/100 g): grams of solid to form a saturated solution in 100 grams of water at 20° C.

Water Solubility (g/100 g)	solubility in water (at 20° C.)	SMILES
15 g/100 g	–	O=P(O)(O)OP(=O)(O)OP(=O)(O)O [Sodium tripolyphosphate anhydrous]
>100 g/100 g	exceeding 100 gms per 100 ml water	NC(N)=O [Urea]

SMILES	Water Solubility (g/100 g)	solubility in water (at 20° C.)
O=BO[O-].[Na+] [Sodium perborate anhydrous]	3.7 g/100 g	–
